Experimental data reported in patent US20200277571A1, “METHOD FOR AMPLIFYING CONE PHOTORECEPTORS OR ROD PHOTORECEPTORS USING DORSALIZATION SIGNAL TRANSMITTER OR VENTRALIZATION SIGNAL TRANSMITTER” (RIKEN, priority 2017, published 2020).

Assays:
[1] = tested on: photoreceptor precursor and cone photoreceptor precursor in retinal tissue produced from human ES cells; assay: Immunostaining for CRX and TRβ2 and CRX::Venus fluorescence observation of retinal tissue, day 70-75 of suspension culture; format: cell-based; conditions: for CRX-positive and TRβ2-positive cells (cone photoreceptor precursor; proportion to DAPI-positive cells): day 70-75, Control (NUC) about 6.8%; for CRX-positive and TRβ2-positive cells (cone photoreceptor precursor; proportion to DAPI-positive cells) / CRX-positive cells (proportion to DAPI-positive cells) / green fluorescence shown by knocked-in CRX::Venus (order of groups) / cone photoreceptor precursor that emerges in initial stage of development (CRX-positive, TRβ2-expressing) versus Control group / CRX-positive cells (photoreceptor precursors) versus retinal tissue of the Control group: 0.15 nM BMP4, 500 nM Cyclopamine-KAAD; for CRX-positive and TRβ2-positive cells (cone photoreceptor precursor; proportion to DAPI-positive cells) / CRX-positive cells (proportion to DAPI-positive cells): 100 nM LDN193189 or 100 nM SAG from day 22; for CRX-positive cells (proportion to DAPI-positive cells): day 70-75 from start of suspension culture, Control (NUC) about 10.6%; for green fluorescence shown by knocked-in CRX::Venus (order of groups): day 70, fluorescence microscope; for green fluorescence shown by knocked-in CRX::Venus (order of groups) / cone photoreceptor precursor that emerges in initial stage of development (CRX-positive, TRβ2-expressing) versus Control group / CRX-positive cells (photoreceptor precursors) versus retinal tissue of the Control group: 100 nM LDN193189, 100 nM SAG from day 22; for cone photoreceptor precursor that emerges in initial stage of development (CRX-positive, TRβ2-expressing) versus Control group: day 70 or 75; for CRX-positive cells (photoreceptor precursors) versus retinal tissue of the Control group / CRX::Venus-positive cells (GFP immunostaining) versus Control (NUC) group: day 75; for CRX-positive cells (photoreceptor precursors) versus retinal tissue of the Control group: immunostained sections; for CRX::Venus-positive cells (GFP immunostaining) versus Control (NUC) group: along with change of ALDH1A3 region, 0.15 nM BMP4, 100 nM LDN193189, 100 nM SAG from day 22
Procedure: CRX::Venus knock-in human ES cells (derived from KhES-1; Nakano, T. et al. Cell Stem Cell 2012, 10(6), 771-785) were cultured according to the methods described in “Ueno, M. et al. PNAS 2006, 103(25), 9554-9559” “Watanabe, K. et al. Nat Biotech 2007, 25, 681-686”. As a medium for culturing human ES cells, DMEM/F12 medium (Sigma) supplemented with 20% KSR (KnockOut™ Serum Replacement; Invitrogen), 0.1 mM 2-mercaptoethanol, 2 mM L-glutamine, ix non-essential amino acid, 7.5 ng/mL bFGF was used.
A cell aggregate containing a retinal tissue was prepared by the method described in “Kuwahara et al. Nat Commun 2015, 19(6), 6286-” after modification in part. That is, the aforementioned cultured ES cells were individually dispersed using TrypLE Express (Invitrogen), and the individually dispersed human ES cells were suspended in 100 μL of a serum-free medium in a cell non-adhesive 96 well plate (SUMILON spheroid plate, SUMITOMO BAKELITE CO., LTD.) at 9×10^3 cells per well to allow rapid formation of aggregates, after which they were cultured at 37° C., 5% CO2. As the serum-free medium therefor, a serum-free medium obtained by adding 10% KSR, 450 μM 1-monothioglycerol, 1× Chemically defined lipid concentrate, 5 mg/mL BSA, 20 μM Y27632 to a 1:1 mixture of F-12 medium and IMDM medium was used. At 6 days after the start of suspension culture, BMP4 at a final concentration of 1.5 nM was added and suspension culture was continued. A half amount of the culture medium in the well was exchanged with the above-mentioned medium not supplemented with a BMP signal transduction pathway agonist every 3 or 4 days. A cell aggregate containing a retinal tissue at day 18 from the start of suspension culture was cultured in suspension in a serum-free medium (DMEM/F12 medium supplemented with 1% N2 supplement) containing 3 μM CHIR99021 and 5 μM SU5402 for 4 days, namely, up to day 22 from the start of suspension culture. Thereafter, suspension culture of the cell aggregate containing the retinal tissue was continued until it was appropriately used for analysis and the like. As the culture medium during this period, serum-containing media shown in the following to [3] were used and the cell aggregate was cultured under 5% CO2 conditions.
[1] day 22 to day 38 from the start of suspension culture; DMEM/F12 medium supplemented with 10% fetal calf serum, 1% N2 supplement, and 100 μM taurine. day 38 to day 60 from the start of suspension culture; a 1:3 mixed medium of DMEM/F12 medium supplemented with 10% fetal calf serum, 1% N2 supplement, and 100 μM taurine, and Neurobasal medium supplemented with 10% fetal calf serum, 2% B27 supplement, and 100 μM taurine. after day 60 from the start of suspension culture; Neurobasal medium supplemented with 10% fetal calf serum, 2% B27 supplement, and 100 μM taurine.
[1] Control group (FIG. 2a, f, k, p); according to the method described in Example 1, culture was performed up to day 70 or day 75 from the start of suspension culture and without addition. [2]+BMP group (FIG. 2b, g, 1, q); 0.15 nM BMP4 was added from day 22 from the start of suspension culture to completion of suspension culture, and cultured up to day 70 or day 75 from the start of suspension culture. [3]+Cyclopamine-KAAD group (FIG. 2c, h, m, r); 500 nM Cyclopamine-KAAD was added from day 22 from the start of suspension culture to completion of the suspension culture, and cultured up to day 70 or day 75 from the start of suspension culture. [4]+LDN193189 group (FIG. 2d, i, n, s); 100 nM LDN193189 was added from day 22 from the start of suspension culture to completion of the suspension culture, and cultured up to day 70 or day 75 from the start of suspension culture. [5]+SAG group (FIG. 2e, j, o, t); 100 nM SAG was added from day 22 from the start of suspension culture to completion of the suspension culture, and cultured up to day 70 or day 75 from the start of suspension culture. […]

[2] = tested on: ALDH1A3 gene; assay: Quantitative PCR of ALDH1A3 gene expression in retinal tissue; format: cell-based, human; conditions: about day 70-75, 0.15 nM BMP4, 100 nM LDN193189, 100 nM SAG from day 22
Procedure: [1] Control group (FIG. 2a, f, k, p); according to the method described in Example 1, culture was performed up to day 70 or day 75 from the start of suspension culture and without addition. [2]+BMP group (FIG. 2b, g, 1, q); 0.15 nM BMP4 was added from day 22 from the start of suspension culture to completion of suspension culture, and cultured up to day 70 or day 75 from the start of suspension culture. [3]+Cyclopamine-KAAD group (FIG. 2c, h, m, r); 500 nM Cyclopamine-KAAD was added from day 22 from the start of suspension culture to completion of the suspension culture, and cultured up to day 70 or day 75 from the start of suspension culture. [4]+LDN193189 group (FIG. 2d, i, n, s); 100 nM LDN193189 was added from day 22 from the start of suspension culture to completion of the suspension culture, and cultured up to day 70 or day 75 from the start of suspension culture. [5]+SAG group (FIG. 2e, j, o, t); 100 nM SAG was added from day 22 from the start of suspension culture to completion of the suspension culture, and cultured up to day 70 or day 75 from the start of suspension culture.
RNA was extracted from retinal tissue on about day 70-75 from the start of suspension culture and prepared under the same conditions, cDNA was synthesized, and the ALDH1A3 gene expression level was analyzed by quantitative PCR. As a result, the expression level of the ALDH1A3 gene was suppressed in +BMP4 group as compared to the Control (NUC) group, and the expression was promoted in +LDN193189 group, +SAG group (FIG. 7, white bar (d70) in graph), as similarly observed by immunostaining. In addition, RNA was extracted from retinal tissue on about day 40-44 from the start of suspension culture and cultured under the same conditions except the culture period, cDNA was synthesized, and the ALDH1A3 gene expression level was analyzed by quantitative PCR. As a result, the expression level scarcely changed on about day 40 from the start of suspension culture as compared to on about day 70 from the start of suspension culture and difference was not found (FIG. 7, black bar (d40) in graph).

| Compound | CRX-positive and TRβ2-positive cells (cone photoreceptor precursor; proportion to DAPI-positive cells) [1] | CRX-positive cells (proportion to DAPI-positive cells) [1] | green fluorescence shown by knocked-in CRX::Venus (order of groups) [1] | cone photoreceptor precursor that emerges in initial stage of development (CRX-positive, TRβ2-expressing) versus Control group [1] | CRX-positive cells (photoreceptor precursors) versus retinal tissue of the Control group [1] | CRX::Venus-positive cells (GFP immunostaining) versus Control (NUC) group [1] | expression level of the ALDH1A3 gene versus Control (NUC) group [2] |
| --- | --- | --- | --- | --- | --- | --- | --- |
| CC1=C2C[C@H]3[C@@H](CC=C4CC(=O)CC[C@@]43C)[C@@H]2CC[C@]12O[C@@H]1C[C@H](C)CN(CCNC(=O)CCCCCNC(=O)CCc3ccccc3)[C@H]1[C@H]2C [Cyclopamine-KAAD] | ~8.1% | ~14.1% | observed more in the order of +BMP4 group, +Cyclopamine-KAAD group, Control group, +LDN193189 group, +SAG group | observed more | Slightly more | – | – |
| c1ccc2c(-c3cnn4cc(-c5ccc(N6CCNCC6)cc5)cnc34)ccnc2c1 [LDN193189, 4-[6-(4-piperazin-1-ylphenyl)pyrazolo[1,5-a]pyrimidin-3-yl]quinoline] | ~4.5% | about 6.8% | observed more in the order of +BMP4 group, +Cyclopamine-KAAD group, Control group, +LDN193189 group, +SAG group | less | less | decreased | promoted |
| BMP4: BMP protein; BMP signal transduction pathway agonist used as dorsalization signal transmitter | about 10.8% | about 17.0% | observed more in the order of +BMP4 group, +Cyclopamine-KAAD group, Control group, +LDN193189 group, +SAG group | observed more | clearly higher | increased | suppressed |
| CNC1CCC(N(Cc2cccc(-c3ccncc3)c2)C(=O)c2sc3ccccc3c2Cl)CC1 (centres unmarked) [SAG] | ~3.2% | ~5.1% | observed more in the order of +BMP4 group, +Cyclopamine-KAAD group, Control group, +LDN193189 group, +SAG group | less | lesser | decreased | promoted |
